Data set [1] addresses T1, G-protein coupled bile acid receptor 1 (Rattus norvegicus) (UniProt Q80T02).
T1 sequence (whole entry): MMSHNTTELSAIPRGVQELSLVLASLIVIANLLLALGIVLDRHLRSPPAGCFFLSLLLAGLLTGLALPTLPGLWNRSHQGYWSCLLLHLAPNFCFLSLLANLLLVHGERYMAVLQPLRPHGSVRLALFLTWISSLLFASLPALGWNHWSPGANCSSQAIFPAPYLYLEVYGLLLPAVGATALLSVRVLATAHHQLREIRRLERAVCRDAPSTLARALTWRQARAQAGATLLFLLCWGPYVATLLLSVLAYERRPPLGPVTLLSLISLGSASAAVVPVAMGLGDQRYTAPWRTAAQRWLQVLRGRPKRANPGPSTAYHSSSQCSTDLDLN
Put plainly: Agonist activity at TGR5 in rat Primary intestinal cell assessed as stimulation of GLP-1 secretion incubated for 2 hrs by ELISA analysis relative to control. In kind it is cell-based. As to conditions: filed as agonist. On the technique in general: In an ELISA, binding on a coated surface is turned into a signal by an enzyme label.

Data set [2] can be described thus: In vivo agonist activity at TGR5 in streptozotocin-induced diabetic hamster model assessed as increase in insulin secretion at 20 mg/kg, po bid administered for 2 weeks by oral glucose tolerance test relative to control. The class given is functional, Cricetulus griseus.
A short description of data set [3]: In vivo agonist activity at TGR5 in streptozotocin-induced diabetic hamster model assessed as increase in HDL level at 20 mg/kg, po bid administered for 2 weeks by oral glucose tolerance test relative to control. The class given is functional, Cricetulus griseus.
The nature of data set [4]: In vivo agonist activity at TGR5 in streptozotocin-induced diabetic hamster model assessed as increase in HDL/LDL ratio at 20 mg/kg, po bid administered for 2 weeks by oral glucose tolerance test relative to control.
The nature of data set [5]: In vivo agonist activity at TGR5 in streptozotocin-induced diabetic hamster model assessed as decrease in LDL level at 20 mg/kg, po bid administered for 2 weeks by oral glucose tolerance test relative to control. As to conditions: Cricetulus griseus. Also on record: scale not given: the % may be the effect or the level left.
Data set [6] is described as follows: In vivo agonist activity at TGR5 in streptozotocin-induced diabetic hamster model assessed as decrease in non-HDL level at 20 mg/kg, po bid administered for 2 weeks by oral glucose tolerance test relative to control. Set-up: scale not given: the % may be the effect or the level left. The note with it: Cricetulus griseus.
Data set [7] deals with T2, G-protein coupled bile acid receptor 1 (Homo sapiens) (UniProt Q8TDU6).
T2 sequence (whole entry): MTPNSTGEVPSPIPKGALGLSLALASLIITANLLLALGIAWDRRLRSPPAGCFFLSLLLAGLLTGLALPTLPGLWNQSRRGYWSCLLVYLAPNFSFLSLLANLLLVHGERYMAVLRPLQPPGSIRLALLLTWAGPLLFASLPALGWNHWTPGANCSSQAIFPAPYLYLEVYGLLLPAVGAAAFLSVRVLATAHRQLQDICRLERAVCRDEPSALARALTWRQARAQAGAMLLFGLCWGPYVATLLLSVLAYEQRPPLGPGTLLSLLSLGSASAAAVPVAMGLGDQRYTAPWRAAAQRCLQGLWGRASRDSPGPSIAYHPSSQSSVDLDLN
Put plainly: Agonist activity at human TGR5 transfected in human NCI-H716 cells assessed as fold increase in GLP-1 secretion. In kind it is cell-based. The note with it: filed as agonist.

Data set [8] in a line: In vivo agonist activity at TGR5 in streptozotocin-induced diabetic hamster model assessed as reduction in glucose excursion at 38 mg/kg, po by oral glucose tolerance test relative to control. The class given is functional, Cricetulus griseus. Also on record: scale not given: the % may be the effect or the level left.
Data set [9] is described as follows: In vivo agonist activity at TGR5 in streptozotocin-induced diabetic hamster model assessed as decrease in plasma triglyceride at 20 mg/kg, po bid administered for 2 weeks by oral glucose tolerance test relative to control. The class given is functional, Cricetulus griseus. Also on record: scale not given: the % may be the effect or the level left.
The nature of data set [10]: In vivo agonist activity at TGR5 in streptozotocin-induced diabetic hamster model assessed as reduction in body weight at 20 mg/kg, po bid administered for 2 weeks by oral glucose tolerance test relative to control. The class given is functional, Cricetulus griseus. Set-up: scale not given: the % may be the effect or the level left.
Data set [11] in a line: In vivo agonist activity at TGR5 in streptozotocin-induced diabetic hamster model assessed as increase in oxygen consumption at 20 mg/kg, po bid administered for 2 weeks by oral glucose tolerance test relative to control. The class given is functional, Cricetulus griseus.
Data set [12] concerns the target T3, Bile acid receptor (Homo sapiens, UniProt Q96RI1).
T3 sequence (Q96RI1 whole entry): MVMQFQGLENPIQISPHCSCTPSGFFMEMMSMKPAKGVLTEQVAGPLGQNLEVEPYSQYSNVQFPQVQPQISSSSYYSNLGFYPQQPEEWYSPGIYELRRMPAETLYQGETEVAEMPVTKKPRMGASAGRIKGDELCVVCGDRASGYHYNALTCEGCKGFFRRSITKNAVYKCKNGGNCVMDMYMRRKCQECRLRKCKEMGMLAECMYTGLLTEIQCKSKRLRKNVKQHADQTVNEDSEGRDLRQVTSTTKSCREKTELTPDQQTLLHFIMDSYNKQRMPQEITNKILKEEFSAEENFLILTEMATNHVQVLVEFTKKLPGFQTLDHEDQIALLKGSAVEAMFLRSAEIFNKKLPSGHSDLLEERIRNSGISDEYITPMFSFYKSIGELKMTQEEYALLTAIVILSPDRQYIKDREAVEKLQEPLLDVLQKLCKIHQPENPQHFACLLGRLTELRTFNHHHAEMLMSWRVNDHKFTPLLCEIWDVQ
Description: Antagonist activity at FXR in human HepG2 cells. In kind it is cell-based.

The target in data set [13] is T3, Bile acid receptor. Put plainly: Antagonist activity at FXR (unknown origin) by HTFR assay.
Data set [14] addresses T4, G-protein coupled bile acid receptor 1 (Homo sapiens, UniProt Q8TDU6).
T4 sequence (Q8TDU6 whole entry): T2 sequence (whole entry)
Put plainly: Agonist activity at TGR5 in human T-lymphocyte cells assessed as increase in cAMP production. In kind it is cell-based. For orientation: Cyclic AMP is a second messenger, typically raised through Gs and lowered through Gi signalling.

For data set [15], the target named is T3, Bile acid receptor. Put plainly: Antagonist activity at FXR in human HepG2 cells incubated for 24 hrs by dual luciferase reporter assay. The class given is cell-based.
Data set [16] can be described thus: Binding affinity to FXR alpha LBD (unknown origin). Also on record: species or system Homo sapiens.
For data set [17], the target named is T3, Bile acid receptor. Put plainly: Agonist activity at human FXR expressed in Escherichia coli BL21 (DE3) assessed as effect on europium labeled SRC-1 peptide recruitment by HTRF assay.
Data set [18] deals with T5, G-protein coupled bile acid receptor 1 (Mus musculus) (UniProt Q80SS6).
T5 sequence (whole entry): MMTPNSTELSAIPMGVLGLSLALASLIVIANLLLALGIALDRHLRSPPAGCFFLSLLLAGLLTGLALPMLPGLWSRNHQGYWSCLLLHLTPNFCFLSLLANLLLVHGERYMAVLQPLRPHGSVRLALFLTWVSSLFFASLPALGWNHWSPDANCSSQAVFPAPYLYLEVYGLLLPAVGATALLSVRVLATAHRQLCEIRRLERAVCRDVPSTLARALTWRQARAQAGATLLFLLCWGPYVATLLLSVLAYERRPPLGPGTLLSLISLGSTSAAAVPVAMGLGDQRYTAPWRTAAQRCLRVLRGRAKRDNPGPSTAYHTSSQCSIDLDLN
Description: In vivo agonist activity at TGR5 in mouse assessed as reduction in blood glucose level at 30 mg/kg, po relative to control. In kind it is functional, organism-based. Also on record: scale not given: the % may be the effect or the level left.

Data set [19] concerns the target T5, G-protein coupled bile acid receptor 1 (Mus musculus). Description: In vivo agonist activity at TGR5 in mouse assessed as increase in insulin level at 30 mg/kg, po relative to control.
Data set [20] has the same target. Put plainly: In vivo agonist activity at TGR5 in mouse assessed as increase in GLP-1 secretion level at 30 mg/kg, po relative to control.
Data set [21] addresses T4, G-protein coupled bile acid receptor 1. Put plainly: Agonist activity at TGR5 in human HEK293 cells assessed as increase in cAMP production. In kind it is cell-based.
Data set [22] shares this target. Put plainly: Agonist activity at TGR5 in human HEK293 cells incubated for 30 mins. The class given is cell-based.
The nature of data set [23]: Toxicity in DIO mouse assessed as reduction in total cholesterol level at 30 mg/kg per day administered for 4 weeks. The note with it: in vivo, 672 h. Also on record: scale not given: the % may be the effect or the level left. In kind it is organism-based.
The target of data set [24] is T3, Bile acid receptor. Put plainly: Agonist activity at GAL4-fused N-terminal GST tagged human FXR LBD expressed in human HEK293 cells by one hybrid reporter assay. In kind it is cell-based. On the technique in general: A reporter such as luciferase makes a cellular process visible.
A short description of data set [25]: Toxicity in DIO mouse assessed as plasma triglycerides at 30 mg/kg per day administered for 4 weeks. The class given is organism-based. The note with it: in vivo, 672 h.
Data set [26] can be described thus: Permeability of compound by PAMPA assay. In kind it is ADME.
Data set [27] deals with T3, Bile acid receptor. Description: Agonist activity at FXR (unknown origin) by FRET assay.

Each structure is given as a SMILES string. A value given as a limit tells only on which side of the number the result lay.

The IC50 is the midpoint of a concentration-inhibition curve. As a reminder, the EC50 is the midpoint of the concentration-response curve. In general, Kd refers to a measure of binding affinity in units of concentration.

Consider `O=C1COc2nccc(-c3ccccc3F)c2CN1Cc1cc(C(F)(F)F)cc(C(F)(F)F)c1`, for which the Activity in data set [1] is 360%.

In the case of `CN(C(=O)c1c(-c2ccc(F)cc2)nc2ncccn12)c1ccc(Cl)cc1`, the Activity was found to be 80% in [2]; 7% in data set [3]; 24% in data set [4]; 14% in data set [5]; 24% in data set [6]; 39% in [8]. For the same compound, the values for the Activity in [9], in [10] and in data set [11] were 43%, 5.2% and 7.9%, respectively. The fold change (FC) in [7] is 3.7.

On to `O=C(O)c1ccccc1-c1ccc(Cn2ccc(OCc3c(-c4ccccc4Cl)noc3-c3cccs3)n2)cc1`, for which the IC50 in data set [12] was found to be 12200 nM; in [13] it was 10000 nM.

For the compound `CS(=O)(=O)c1ccc(CC2CCC(c3c(C(=O)N4CCC(c5ccc(F)cc5)C4)cnn3-c3ccc(F)cc3)CC2)cc1` (stereo not drawn), the EC50 in data set [14] is 7 nM.

On to `CN(C)c1cc(Cl)c(C(=O)N(Cc2ccccc2)c2ccc(O)c(C(C)(C)C)c2)c(Cl)c1`, for which the IC50 in data set [15] stood at 4500 nM. In data set [16], this compound gave an equilibrium dissociation constant (Kd) of 8300 nM.

`CC(C)c1onc(-c2c(Cl)cccc2Cl)c1COc1ccc2c(ccn2Cc2ccc(-c3nnn[nH]3)cc2)c1`: the EC50 in data set [17] is less than 100 nM.

For `O=c1c2ccccc2nc(-c2ccc(F)cc2)n1NCc1ccc(Br)cc1`, the Activity in [18] worked out at 52%; in [19], 130%; in [20], 70%. Moreover, in data set [21], the EC50 is less than 10000 nM.

Compound `COc1ccc(Cc2nnc(SCc3c(F)cccc3Cl)n2-c2ccc(F)cc2F)cc1OC` registered an EC50 in data set [22] of less than 100 nM.

As to `O=C(O)c1ccc(C2CC2c2ccc(OCc3c(-c4c(Cl)cccc4Cl)noc3C3CC3)cc2Cl)cc1` (stereo not drawn), the Activity in data set [23] was 70%; in [25], 50%. The same compound displayed an EC50 in data set [24] of 10 nM.

On to `CC(C)n1nc(C(=O)O)cc1[C@H]1C[C@](O)(c2ccc(OCc3c(-c4c(Cl)cccc4Cl)noc3C3CC3)cc2Cl)C1`, for which, in data set [26], the permeability stood at 46.1%. Besides, the EC50 in data set [27] was less than 25 nM; in data set [24], 10 nM.

Values taken from ChEMBL document CHEMBL5247574, “Recent Progress on Bile Acid Receptor Modulators for Treatment of Metabolic Diseases” (J Med Chem, 2016).
